# Patent publication US8765730B2 (Hoffmann-La Roche Inc, priority 2010, dated 2014)
# Target: T1, human GPBAR1 receptor (Homo sapiens, UniProt Q8TDU6)
# T1 construct: expressed in transfected cells
# T1 sequence (Q8TDU6 1-330): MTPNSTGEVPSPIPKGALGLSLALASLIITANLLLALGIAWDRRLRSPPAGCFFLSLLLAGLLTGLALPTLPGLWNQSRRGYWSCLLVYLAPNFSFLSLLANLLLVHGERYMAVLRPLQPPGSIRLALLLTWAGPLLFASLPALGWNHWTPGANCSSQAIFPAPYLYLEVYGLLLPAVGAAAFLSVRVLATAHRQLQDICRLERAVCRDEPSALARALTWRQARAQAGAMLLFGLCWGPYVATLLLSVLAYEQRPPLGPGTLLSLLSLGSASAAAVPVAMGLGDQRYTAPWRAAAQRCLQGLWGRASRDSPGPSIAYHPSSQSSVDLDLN
# Test: functional cAMP assay in CHO-dhfr(minus) cells expressing human GPBAR1 receptors
# Assay type: cell-based
# Details: human EC50, functional cAMP assay, 30 min at 30° C.
# Procedure: The final clone was verified by DNA sequence analysis. The plasmid was transfected into CHO cells deficient in dihydrofolate reductase activity (CHO-dhfr−) using Lipofectamine plus (Invitrogen). Clones were isolated in limited dilution conditions and identified by activities in the cAMP assay using lithocholic acid as agonist.
# The growth medium was exchanged with Krebs Ringer Bicarbonate buffer with 1 mM IBMX and incubated at 30° C. for 30 min. Compounds were added to a final assay volume of 100 μl and incubated for 30 min at 30° C. […] The time-resolved energy transfer is measured by a TRF reader (Evotec Technologies GmbH, Hamburg Germany), equipped with a ND:YAG laser as excitation source.
# EC50 values were determined using Activity Base analysis (ID Business Solution, Limited). […] Specificity for GPBAR1 was tested in non-transfected CHO cells in the same assay as above.
row,EC50,Structure (SMILES)
1,40 nM,"Cc1ccccc1C(CC(=NO)c1ccncc1)c1cccc(Br)c1 (racemic) [Example 11, 3-(3-Bromo-phenyl)-1-pyridin-4-yl-3-o-tolyl-propan-1-one oxime]"
2,173 nM,"CCC(CC(=NO)c1ccncc1)c1cccc(Br)c1 (racemic) [Example 13, 3-(3-Bromo-phenyl)-1-pyridin-4-yl-pentan-1-one oxime]"
3,400 nM,"Cc1ccccc1C(CC(=NO)c1ccncc1)c1cccc(-c2ccc(S(C)(=O)=O)cc2)c1 (racemic) [Example 29, 3-(4′-Methanesulfonyl-biphenyl-3-yl)-1-pyridin-4-yl-3-o-tolyl-propan-1-one oxime]"
4,181 nM,"Cc1ccccc1C(CC(=NO)c1ccncc1)c1cccc(-c2cccc(S(C)(=O)=O)c2)c1 (racemic) [Example 30, 3-(3′-Methanesulfonyl-biphenyl-3-yl)-1-pyridin-4-yl-3-o-tolyl-propan-1-one oxime]"
5,255 nM,"Cc1ccccc1C(CC(=NO)c1ccncc1)c1ccc(-c2cccc(S(C)(=O)=O)c2)cc1 (racemic) [Example 32, 3-(3′-Methanesulfonyl-biphenyl-4-yl)-1-pyridin-4-yl-3-o-tolyl-propan-1-one oxime]"
6,47 nM,"Cc1ccccc1C(CC(=NO)c1ccncc1)c1ccc(-c2ccc(S(C)(=O)=O)cc2)cc1 (racemic) [Example 33, 3-(4′-Methanesulfonyl-biphenyl-4-yl)-1-pyridin-4-yl-3-o-tolyl-propan-1-one oxime]"
7,14 nM,"Cc1ccccc1C(CC(=NO)c1ccncc1)c1ccc(-c2cncnc2)cc1 (racemic) [Example 34, 1-Pyridin-4-yl-3-(4-pyrimidin-5-yl-phenyl)-3-o-tolyl-propan-1-one oxime]"
8,34 nM,"Cc1ccccc1C(CC(=NO)c1ccncc1)c1ccc(N2CCCCC2)cc1 (racemic) [Example 40, 3-(4-Piperidin-1-yl-phenyl)-1-pyridin-4-yl-3-o-tolyl-propan-1-one oxime]"
9,36 nM,"Cc1ccccc1C(CC(=NO)c1ccncc1)c1ccc(N2CCOCC2)cc1 (racemic) [Example 41, 3-(4-Morpholin-4-yl-phenyl)-1-pyridin-4-yl-3-o-tolyl-propan-1-one oxime]"
10,156 nM,"CCN(CC)c1ccc(C(CC(=NO)c2ccncc2)c2ccccc2C)cc1 (racemic) [Example 42, 3-(4-Diethylamino-phenyl)-1-pyridin-4-yl-3-o-tolyl-propan-1-one oxime]"
11,1360 nM,"ON=C(CC(c1ccccc1)c1ccc(Br)cc1)c1ccnc(Cl)c1 (racemic) [Example 46, 3-(4-Bromo-phenyl)-1-(2-chloro-pyridin-4-yl)-3-phenyl-propan-1-one oxime]"
12,2910 nM,"Cc1ccccc1C(CC(=NO)c1cc(Cl)ccc1Cl)c1ccc(Br)cc1 (racemic) [Example 49, 3-(4-Bromo-phenyl)-1-(2,5-dichloro-phenyl)-3-o-tolyl-propan-1-one oxime]"
13,2730 nM,"Cc1ccccc1C(CC(=NO)c1ccncc1)c1ccc(C(=O)O)cc1 (racemic) [Example 70, 4-{3-[Hydroxyimino]-3-pyridin-4-yl-1-o-tolyl-propyl}-benzoic acid]"
14,1620 nM,"Cc1ccccc1C(CC(=NO)c1ccncc1)c1cccc(C(=O)O)c1 (racemic) [Example 71, 3-{3-[Hydroxyimino]-3-pyridin-4-yl-1-o-tolyl-propyl}-benzoic acid]"

# Second part, the compound before the results:
row,Structure (SMILES),EC50
1,"Cc1cc(C(C=C(c2ccccc2)c2ccccc2)=NO)cc(C)n1 (mixture of isomers) [Example 66, 1-(2,6-Dimethyl-pyridin-4-yl)-3,3-diphenyl-propenone oxime]",300 nM
2,"COC(=O)c1ccc(-c2ccc(C(CC(=NO)c3ccnc(C)c3)c3ccccc3C)cc2)cc1 (mixture of isomers) [Example 74, 4′-[3-[Hydroxyimino]-3-(2-methyl-pyridin-4-yl)-1-o-tolyl-propyl]-biphenyl-4-carboxylic acid methyl ester]",218 nM
3,"Cn1cc(C(CC(c2ccc(C(=O)NCCO)c(F)c2)c2ccccc2Cl)=NO)ccc1=O (mixture of isomers) [Example 216, (E/Z)-4-(1-(2-Chlorophenyl)-3-(hydroxyimino)-3-(1-methyl-6-oxo-1,6-dihydropyridin-3-yl)propyl)-2-fluoro-N-(2-hydroxyethyl)benzamide]",255 nM
4,"Cc1ccc(C(CC(=NO)c2ccncc2)c2ccc(N(C)C)cc2)cc1C (racemic) [Example 17, 3-(4-Dimethylamino-phenyl)-3-(3,4-dimethyl-phenyl)-1-pyridin-4-yl-propan-1-one oxime]",380 nM
5,"Cc1cc(C)cc(C(CC(=NO)c2ccncc2)c2ccc(N(C)C)cc2)c1 (racemic) [Example 18, 3-(4-Dimethylamino-phenyl)-3-(3,5-dimethyl-phenyl)-1-pyridin-4-yl-propan-1-one oxime]",661 nM
6,"Cc1cc(C(=NO)C(Cc2ccc(Br)cc2)c2ccccc2)cc(C)n1 (racemic) [Example 45, 3-(4-Bromo-phenyl)-1-(2,6-dimethyl-pyridin-4-yl)-2-phenyl-propan-1-one oxime]",1160 nM
7,"ON=C(CC(c1ccccc1)c1ccccc1)c1cc(Cl)ncc1F (racemic) [Example 55, 1-(2-Chloro-5-fluoro-pyridin-4-yl)-3,3-diphenyl-propan-1-one oxime]",117 nM
8,"Cc1cc(C(CC(c2ccccc2)c2ccccc2)=NO)ccn1 (racemic) [Example 57, 1-(2-Methyl-pyridin-4-yl)-3,3-diphenyl-propan-1-one oxime]",73 nM
9,"ON=C(CC(c1ccccc1)c1ccccc1)c1cc(F)ncc1Cl (racemic) [Example 58, 1-(5-Chloro-2-fluoro-pyridin-4-yl)-3,3-diphenyl-propan-1-one oxime]",76 nM
10,"Cc1cnc(F)cc1C(CC(c1ccccc1)c1ccccc1)=NO (racemic) [Example 59, 1-(2-Fluoro-5-methyl-pyridin-4-yl)-3,3-diphenyl-propan-1-one oxime]",17 nM
11,"ON=C(CC1c2ccccc2-c2ccccc21)c1ccncc1 (racemic) [Example 61, 2-(9H-Fluoren-9-yl)-1-pyridin-4-yl-ethanone oxime]",4590 nM
12,"CN(C)c1ccc(C(CC(=NO)c2ccncc2)c2c[nH]c3ccccc23)cc1 (racemic) [Example 62, 3-(4-Dimethylamino-phenyl)-3-(1H-indol-3-yl)-1-pyridin-4-yl-propan-1-one oxime]",2710 nM
13,"Cc1[nH]c2ccccc2c1C(CC(=NO)c1ccncc1)c1ccc(N(C)C)cc1 (racemic) [Example 63, 3-(4-Dimethylamino-phenyl)-3-(2-methyl-1H-indol-3-yl)-1-pyridin-4-yl-propan-1-one oxime]",2730 nM
14,"Cc1cc(C(CC(c2ccccc2)c2ccccc2)=NO)cc(C)n1 (racemic) [Example 67, 1-(2,6-Dimethyl-pyridin-4-yl)-3,3-diphenyl-propan-1-one oxime]",132 nM
15,"CCOC(=O)c1cccc(-c2ccc(C(CC(=NO)c3ccnc(C)c3)c3ccccc3C)cc2)c1 (racemic) [Example 78, 4′-[3-[Hydroxyimino]-3-(2-methyl-pyridin-4-yl)-1-o-tolyl-propyl]-biphenyl-3-carboxylic acid ethyl ester]",381 nM
16,"COC(=O)c1ccc(-c2ccc(C(CC(=NO)c3ccnc(C)c3)c3ccccc3C)cc2)c(F)c1 (racemic) [Example 81, 2-Fluoro-4′-[3-[hydroxyimino]-3-(2-methyl-pyridin-4-yl)-1-o-tolyl-propyl]-biphenyl-4-carboxylic acid methyl ester]",295 nM
17,"Cc1cc(C(CC(c2ccc(-c3ccc(C(=O)O)cc3F)cc2)c2ccccc2C)=NO)ccn1 (racemic) [Example 82, 2-Fluoro-4′-[3-[hydroxyimino]-3-(2-methyl-pyridin-4-yl)-1-o-tolyl-propyl]-biphenyl-4-carboxylic acid]",43 nM
18,"COC(=O)c1ccc(-c2ccc(C(CC(=NO)c3ccnc(C)c3)c3ccccc3C)cc2)cc1Cl (racemic) [Example 83, 3-Chloro-4′-[3-[hydroxyimino]-3-(2-methyl-pyridin-4-yl)-1-o-tolyl-propyl]-biphenyl-4-carboxylic acid methyl ester]",455 nM
19,"Cc1cc(C(CC(c2ccc(-c3ccc(C(=O)O)c(Cl)c3)cc2)c2ccccc2C)=NO)ccn1 (racemic) [Example 84, 3-Chloro-4′-[3-[hydroxyimino]-3-(2-methyl-pyridin-4-yl)-1-o-tolyl-propyl]-biphenyl-4-carboxylic acid]",27 nM
20,"Cc1cc(C(CC(c2ccc(C#CCO)cc2)c2ccccc2C)=NO)ccn1 (racemic) [Example 85, 3-[4-(3-Hydroxy-prop-1-ynyl)-phenyl]-1-(2-methyl-pyridin-4-yl)-3-o-tolyl-propan-1-one oxime]",1 nM
21,"Cc1cc(/C(CC(c2ccc(/C=C/C(=O)O)cc2)c2ccccc2C)=N\O)ccn1 (racemic) [Example 87, 3-{4-[3-[Hydroxyimino]-3-(2-methyl-pyridin-4-yl)-1-o-tolyl-propyl]-phenyl}-acrylic acid]",241 nM
22,"Cc1cc(C(CC(c2ccc(CCCO)cc2)c2ccccc2C)=NO)ccn1 (racemic) [Example 88, 3-[4-(3-Hydroxy-propyl)-phenyl]-1-(2-methyl-pyridin-4-yl)-3-o-tolyl-propan-1-one oxime]",12 nM
